{"source": "PubChem BioAssay AID743403", "about": "(Broad Institute, 2014)", "note": "Several values for one entry are separate records, joined by “and”; a condition that tells them apart may be missing. Equal values may be shown once. Activity calls are given as the source filed them. How the calls were made is not given here."}
{"system": "not listed separately", "experiment": "fungal cell lysis by compounds – dry powder, set 2, dose response (AID 743403)", "conditions": "Cryptococcus neoformans cell lysis, plate reader; at 35 µM (top of the series)"}
{"smiles": "CCSc1nc2ccccc2n1CCOc1ccccc1", "activity change, negative = active": "-22.6% (inactive)"}
{"smiles": "O=S(=O)(c1ccc(OCCn2cnc3ccccc32)cc1)N1CCOCC1", "activity change, negative = active": "-21.8% (inactive)"}
{"smiles": "Cc1cccc(OCCn2c(=S)[nH]c3ccc(C(F)(F)F)cc32)c1", "activity change, negative = active": "4.5% (inactive)"}
{"smiles": "Cc1ccc(C(C)C)c(OCCn2c(CO)nc3ccccc32)c1", "activity change, negative = active": "-20.4% (inactive)"}
{"smiles": "CSc1nc2ccccc2n1CCOc1cc(C)ccc1C(C)C", "activity change, negative = active": "-4.35% (inactive)"}
{"smiles": "Cc1ccc(C(C)C)c(OCCn2c(=O)[nH]c3ccccc32)c1", "activity change, negative = active": "-16.7% (inactive)"}
{"smiles": "COc1ccc(OCCn2cnc3ccccc32)cc1", "activity change, negative = active": "-22.1% (inactive)"}
{"smiles": "CCCc1nc2ccccc2n1CCOc1ccccc1", "activity change, negative = active": "0.352% (inactive)"}
{"smiles": "Cc1ccc(C(C)C)c(OCCn2c(NC#N)nc3ccccc32)c1", "activity change, negative = active": "-9.31% (inactive)"}
{"smiles": "CCc1nc2ccccc2n1CCOc1ccccc1", "activity change, negative = active": "5.25% (inactive)"}
{"smiles": "S=c1[nH]c2cc(Cl)ccc2n1CCOc1ccccc1", "activity change, negative = active": "27% (inactive)"}
{"smiles": "CS(=O)(=O)c1ccc(OCCn2cnc3ccccc32)cc1", "activity change, negative = active": "-15.6% (inactive)"}
{"smiles": "Fc1ccc(OCCn2c(=S)[nH]c3ccccc32)cc1", "activity change, negative = active": "-33.3% (inactive)"}
{"smiles": "CC(C)c1ccccc1NCCn1c(=S)[nH]c2ccccc21", "activity change, negative = active": "0.673% (inactive)"}
{"smiles": "Cc1cccc(OCCn2c(=S)[nH]c3c(F)cccc32)c1", "activity change, negative = active": "1.05% (inactive)"}
{"smiles": "OCc1nc2ccccc2n1CCOc1ccccc1", "activity change, negative = active": "-9.32% (inactive)"}
{"smiles": "c1ccc(-c2ccc(OCCn3cnc4ccccc43)cc2)cc1", "activity change, negative = active": "-12.5% (inactive)"}
{"smiles": "CCCCc1nc2ccccc2n1CCOc1ccccc1", "activity change, negative = active": "0.005% (inactive)"}
{"smiles": "COCc1nc2ccccc2n1CCOc1ccc(C(C)(C)C)cc1", "activity change, negative = active": "5.6% (inactive)"}
{"smiles": "Cc1ccc(C(C)C)c(OCCn2c(N)nc3ccccc32)c1", "activity change, negative = active": "69.2% (inactive)"}
{"smiles": "COc1ccccc1OCCn1c(=S)[nH]c2ccccc21", "activity change, negative = active": "3.55% (inactive)"}
{"system": "Cryptococcus neoformans cell lysis, plate reader", "experiment": "fungal cell lysis by compounds – dry powder, set 2, dose response (AID 743403)", "conditions": "not given"}
{"smiles": "Cc1ccc(C(C)C)c(OCCn2c(=S)[nH]c3ccccc32)c1", "AC50": "4.95 µM"}
{"smiles": "CC(C)c1ccccc1OCCn1c(=S)[nH]c2ccccc21", "AC50": "11.9 µM"}
{"smiles": "Cc1ccc2c(c1)[nH]c(=S)n2CCOc1ccccc1", "AC50": "17.4 µM"}
{"smiles": "Clc1ccccc1OCCn1cnc2ccccc21", "AC50": "36.3 µM"}
{"smiles": "Cc1ccc(OCCn2cnc3cc(C)c(C)cc32)cc1", "AC50": "15.9 µM"}
{"smiles": "Cc1ccc(OCCn2cnc3ccccc32)c(C)c1", "AC50": "7.4 µM"}
{"smiles": "Clc1ccc(OCCn2cnc3ccccc32)cc1", "AC50": "32.5 µM"}
{"smiles": "CC(C)(C)c1ccc(OCCn2cnc3ccccc32)cc1", "AC50": "30.5 µM"}
{"smiles": "Cc1cc2ncn(CCOc3ccccc3)c2cc1C", "AC50": "25 µM"}
{"smiles": "CC(C)Oc1ccc(OCCn2c(=S)[nH]c3ccccc32)cc1", "AC50": "29.7 µM"}
{"smiles": "c1ccc2c(c1)ncn2CCOc1ccc2c(c1)CCC2", "AC50": "3.76 µM"}
{"smiles": "Cc1cc2ncn(CCOc3ccccc3C)c2cc1C", "AC50": "19.8 µM"}
{"smiles": "NCC(=O)Nc1ccc(-n2nc(C(F)(F)F)cc2-c2ccc3c(ccc4ccccc43)c2)cc1", "AC50": "10.9 µM"}
{"smiles": "FC(F)(F)c1cccc(OCCn2cnc3ccccc32)c1", "AC50": "> 70 µM (inactive)"}
{"smiles": "Cc1cccc(OCCn2c(=S)[nH]c3cc(F)ccc32)c1", "AC50": "14.8 µM and 15.5 µM"}
{"smiles": "Cc1cc2ncn(CCOc3ccc4c(c3)CCC4)c2cc1C", "AC50": "5.59 µM"}
{"smiles": "S=c1[nH]c2cccc(Cl)c2n1CCOc1ccccc1", "AC50": "8.43 µM"}
{"smiles": "CC(C)Oc1cccc(OCCn2cnc3ccccc32)c1", "AC50": "29 µM"}
{"smiles": "Cc1cccc(OCCn2c(=S)[nH]c3ccccc32)c1", "AC50": "19.5 µM"}
{"smiles": "COc1ccccc1OCCn1c(SC)nc2ccccc21", "AC50": "> 70 µM (inactive)"}
{"smiles": "Clc1ccc(OCCn2cnc3ccccc32)c(Cl)c1", "AC50": "7.76 µM"}
{"smiles": "Fc1cccc2c1[nH]c(=S)n2CCOc1ccccc1", "AC50": "26.2 µM"}
{"smiles": "CC(C)(C)c1ccc(OCCn2cnc3ccccc32)c(Cl)c1", "AC50": "20.8 µM"}
{"smiles": "Fc1ccc2c(c1)[nH]c(=S)n2CCOc1ccccc1", "AC50": "23.2 µM and 28.7 µM"}
{"smiles": "CSc1nc2ccccc2n1CCOc1ccc(C)cc1", "AC50": "> 70 µM (inactive)"}
